The source of these data is patent publication US20120059005A1, “COMBINATION OF (A) A PHOSPHOINOSITIDE 3-KINASE INHIBITOR AND (B) AN ANTIDIABETIC COMPOUND FOR USE IN THE TREATMENT OF PROLIFERATIVE DISEASES” (NOVARTIS AG, priority 2009, published 2012).

One may read the T/C as the ratio of treated to control.

Each structure is given as a SMILES string. Entries after “also recorded” stand apart in the source; their conditions may differ. Read-outs that look alike come from different tables or passages of the source.

The test system of assay [1] is phosphorylated and total AMPK, MAPK, EGFR, HER and S6 ribosomal protein. In words: Western blot of phosphorylated and total signalling proteins in breast cancer cells. The class given is cell-based. The procedure: (§1) MCF-7(HER2), SK-BR-3, MDA-MB-231 and MDA-MB-468 breast cancer cells are treated with different doses of 2-Methyl-2-[4-(3-methyl-2-oxo-8-quinolin-3-yl-2, 3-dihydro-imidazo[4,5-c]quinolin-1-yl)-phenyl]-propionitrile, also known as COMPOUND A, metformin or both agents in combination. Levels of phosphorylated and total AMPK, MAPK, EGFR, HER and S6 ribosomal protein are evaluated by western blot. Cell proliferation analyses are performed in triplicates using the WST-1 and crystal violet colorimetric assays.
On the technique in general: Immunoblotting shows a protein as a band on a membrane.

Assay [2] deals with H460 non-small cell lung tumors. The experiment in a line: H460 xenograft 12-day tumor growth inhibition assay. The class given is in vivo, nude mice. To be noted: for Mean Tumor Vol. Change / Regression / T/C: Day 12. The method, then: H460 human non-small cell lung cancer (NSCLC) cells are treated with, different doses of 2-Methyl-2-[4-(3-methyl-2-oxo-8-quinolln-3-yl-2,3-dihydro-imidazo[4, 5-c]quinolin-1-yl)-phenyl]-propionitrile monotosylate salt (also known as COMPOUND A) or 5,-(2,6-di-rnorpholin-4-yl-pyrimidin-4-yl)-4-trifluoromethyl-pyridin-2-ylamine hydrochloride salt (also known as COMPOUND C), a single dose of metformin or both agents in combination, The H460 human NSCLC cells (NCl-H460. ATCC-HTB-177, available from American Type Culture Collection, FRockville, Md. US) are derived from the pleural fluid of a patient with large cell cancer of the lung.
H460 tumor cells are grown in RPMI 1640 medium containing 100 units/mL penicillin G sodium, 100 μg/mL streptomycin sulfate, and 25 μg/mL gentamicin. The medium is supplemented with 10% fetal bovine serum and 2 mM glutamine. The cells are cultured in tissue culture flasks in a humidified incubator at 37° C., in an atmosphere of 5% CO2 and 95% air. The cells are harvested for injection into 9-week old female nu/nu (nude) mice (Harlan Laboratories, Indianapolis, Ind.) by detaching the monolayers with 2× trypsin and resuspending at 5×10^7 cells/mL in phosphate-buffered saline.
0.2 mL of H460 tumor cell suspension (1×10^7 cells) is injected subcutaneously in the right flank of 9-week old female nu/nu (nude) mice (Harlan Laboratories, Indianapolis, Ind.) having a body weight (BW) range of 18.1-26.9 g on Day 1 of the study. Tumors are monitored twice weekly and then daily as their mean volume approaches 100-150 mm^3. Ten days after implantation, the mice are sorted into 11 groups of eight mice having individual tumor sizes of 75-196 mm^3 and a group mean tumor size of 119-122 mm^3. Tumor volume in mm^3 is determined using the formula [(width)^2×(length)]/2, where width width of the tumor in mm and length length of the tumor in mm. Tumor weight can be estimated with the assumption that 1 mg is equivalent to 1 mm^3 of tumor volume.
The 11 groups of nude mice are treated as follows. One group of eight mice serves as Controls (C or Control) for all analyses and is administered intraperitoneally (i.p.) 50 mM sodium acetate at pH 4 (Vehicle 1) and then administered by oral gavage (p.o.) a composition comprising 10% N-methylpyrrolidone 90% polyethylene glycol 300 (PEG300) (Vehicle 2). […] Metformin is dissolved in 50 mM sodium acetate at pH 4 for dosing.
Compound A is stored at −20° C. Compound C is stored at −20° C. protected from light. Stock solutions (10×) in 100% N-rnethylpyrrolidone (NMP) are prepared every five days, aliquotted, and stored in the dark at room temperature. On each treatment day, stock solution aliquots are diluted with polyethylene glycol (PEG300) to provide the formulated drug (Compound A or Compound C) in 10% NMP: 90% PEG300. Dosing solutions are protected from light, and the formulated drug is administered within 1 hour after preparation.
For combination therapies, Compound A or Compound C are administered by oral gavage (p.o.) within 30 minutes after the intraperitoneal (i.p.) administration of metformin, except on Day 20 when Compound A or Compound C is given immediately after metformin.
Paclitaxel (Natural Pharmaceuticals, Inc., Beverly, Mass., USA) is administered by bolus tail-vein injections (i.v.) once daily on alternate days for five doses. Paclitaxel is dissolved in 50% ethanol and 50% Crernophor® EL to prepare a 10× stock solution stored at room temperature. On each day of dosing, an aliquot of the paclitaxel stock solution is diluted with 5% dextrose in water to yield a dosing solution containing 5% ethanol and 5% Cremophor® EL.
In all groups, the dosing volume of 10 mL/kg (0.2 mL/20 g mouse) is scaled to the weight of each animal as determined on the day of dosing, except on weekends when the previous BW is carried fontvard.

The test system of assay [3] is MCF-7(HER2), SK-BR-3, MDA-MB-231 and MDA-MB-468 breast cancer cells. To be noted: different doses, SK-BR-3, MDA-MB-231, MDA-MB-468, triplicates. The method, then:
as §1

[4] abbreviates: Compound A 41.1 mg/kg p.o., 1x daily.
The mark [5] stands for this setting: Compound A 68.5 mg/kg p.o., 1x daily.
The mark [6] stands for this setting: Paclitaxel 30 mg/kg i.v., 1x on alternate days for 5 doses.
The mark [7] stands for this setting: Compound C 32.7 mg/kg p.o., 1x daily.
Setting [8] is: Compound C 54.4 mg/kg p.o., 1x daily until day 10 (stopped due to toxicity).
Where [9] appears, read: breast cancer cells, listed as metformin.
[10] abbreviates: Metformin 192.3 mg/kg i.p., 1x daily.

Regarding `Cn1c(=O)n(-c2ccc(C(C)(C)C#N)cc2)c2c3cc(-c4cnc5ccccc5c4)ccc3ncc21` [Compound A, 2-Methyl-2-[4-(3-methyl-2-oxo-8-quinolin-3-yl-2,3-dihydro-imidazo[4,5-c]quinolin-1-yl)-phenyl]-propionitrile], in assay [1] (breast cancer cells), the “levels of p-S6 ribosomal protein” value is listed as “potently decreases”, the p-AKT result was “potently decreases” and the “p-MAPK / MAPK phosphorylation” value is recorded as “increases MAPK phosphorylation”. Moreover, in assay [2] (setting [4]), the “Mean Tumor Vol. Change” value was found to be 809 mm^3, the Regression result is recorded as “None” and the T/C is on record as 54% (ns,. In assay [2] (setting [5]), the “Mean Tumor Vol. Change” value is 448 mm^3, the Regression result is “None” and the T/C is 30% (ns,.
Take `CC(=O)O[C@H]1C(=O)[C@@]2(C)[C@H]([C@H](OC(=O)c3ccccc3)[C@]3(O)C[C@H](OC(=O)[C@H](O)[C@@H](NC(=O)c4ccccc4)c4ccccc4)C(C)=C1C3(C)C)[C@]1(OC(C)=O)CO[C@@H]1C[C@@H]2O` [Paclitaxel, reference compound]: in assay [2] (setting [6]), the “Mean Tumor Vol. Change” value amounted to 227 mm^3, the Regression entry is on record as “None” and the T/C is on record as 15%.
For the compound `Nc1cc(C(F)(F)F)c(-c2cc(N3CCOCC3)nc(N3CCOCC3)n2)cn1` [Compound C, 5-(2,6-di-morpholin-4-yl-pyrimidin-4-yl)-4-trifluoromethyl-pyridin-2-ylamine], in assay [2] (setting [7]), the “Mean Tumor Vol. Change” value is on record as 880 mm^3, the Regression entry is reported as “None” and the T/C was 59% (ns,. In assay [2] (setting [8]), the “Mean Tumor Vol. Change” value is 110 mm^3 and the Regression result is given as “None”. The T/C in assay [2] (Compound C 54.4 mg/kg p.o., 1x daily until day 10 (stopped due to toxicity), not evaluable (ne)) was 7% (ne,.
As to `CN(C)C(=N)N=C(N)N` [Metformin, dimethyldiguanide, reference compound], in assay [1] (breast cancer cells), the “AMPK activation (p-AMPK)” value is “activates AMPK”; the “levels of p-S6 ribosomal protein” value is recorded as “decreasing the levels of p-S6 ribosomal protein”; the “receptor tyrosine kinase (EGFR and HER2) expression” value was “reduced receptor tyrosine kinase (EGFR and HER2) expression”. In assay [1] (setting [9]), the “AMPK activation (p-AMPK)” value is recorded as “activates p-AMPK” and the “p-MAPK / MAPK phosphorylation” value is recorded as “reduces p-MAPK; also recorded: decreased p-MAPK”. The “MARK pathway transactivation induced by COMPOUND A” value in assay [1] (metformin together with COMPOUND A) is reported as “counteracts”. The “cell proliferation / growth inhibition” value in assay [3] is reported as “dose-dependent growth inhibition”. The “cell proliferation / growth inhibition” value in assay [3] (listed as metformin) is “inhbitor of HER2 negative breast cancer cell proliferation”. Also, in assay [2] (setting [10]), the “Mean Tumor Vol. Change” value is given as 1516 mm^3, the Regression result is given as “None” and the T/C is reported as 101% (ns,. Moreover, the “enhancement of efficacy or tolerability in combination with COMPOUND C” value in assay [2] (metformin in combination with COMPOUND C, overall conclusion) is “does not appear to enhance efficacy or tolerability”. Moreover, the “impact on tumor growth in the 12-day tumor growth inhibition assay” value in assay [2] (metformin monotherapy at 192.3 mg/kg) is reported as “did not appear to impact tumor growth”.
